# Like-named read-outs stand apart in the source and are kept apart here.
# How the values were obtained:
# Assay type in all cases: cell-based
# [1] = test system: MRC-5; assay: Cytostatic/cytotoxic MTT assay, MRC-5 fibroblasts; conditions: Homo sapiens, read-out: MTT, IC50 MRC-5
# Excerpt: (§1) Unless otherwise stated, all cells were purchased from the […] (ATCC). The CCRF-CEM line is derived from T lymphoblastic leukemia, evincing high chemosenzitivity, K562 represent cells from a […] patient sample with bcr-abl translocation, HCT116 is colorectal tumor cell line and its p53 gene knock-down counterpart (HCT116p53−/−, Horizon Discovery, UK) is a model of human cancers with p53 inactivation frequently associated with poor prognosis, A549 cell line is lung adenocarcinoma. The daunorubicin resistant subline of CCRF-CEM cells (CEM-DNR bulk) and paclitaxel resistant subline K562-TAX were selected in our laboratory by cultivation of maternal cell lines in increasing concentrations of daunorubicine or paclitaxel, respectively. The CEM-DNR cells overexpress mrp-1 and mdr-1 genes, while K562-TAX cells overexpress mdr-1 only. Both proteins belong to the family of ABC transporters and are involved in the primary and/or acquired multidrug resistance phenomenon (ref.: Gottesman, M. M.; Fojo, T.; Bates, S. E. Multidrug resistance in cancer: role of ATP-dependent transporters. Nat. Rev. Cancer. 2002, 2, 48-58. (b) Noskova, V.; Dzubak, P.; Kuzmina, G.; Ludkova, A.; Stehlik, D.; Trojanec, R.; Janostakova, A.; Korinkova, G.; Mihal, V.; Hajduch, M. In vitro chemoresistance profile and expression/function of MDR associated proteins in resistant cell lines derived from CCRF-CEM, K562, A549 and MDA MB 231 parental cells. Neoplasma 2002, 49, 418-425). Non-malignant MRC-5 and BJ cells, derived from normal human fibroblasts, were used as controls. The cells were maintained in Nunc/Corning 80 cm^2 plastic tissue culture flasks and cultured in cell culture medium (DMEM/RPMI 1640 with 5 g/L glucose, 2 mM glutamine, 100 U/mL penicillin, 100 µg/mL streptomycin, 10% fetal calf serum, and NaHCO3). Cell suspensions were prepared and diluted according to the particular cell type and the expected target cell density (25,000-30,000 cells/well based on cell growth characteristics). Cells were added by pipette (80 L) into 96-well microtiter plates. Inoculates were allowed a pre-incubation period of 24 h at 37° C. and 5% CO2 for stabilization. Four-fold dilutions, in 20-L aliquots, of the intended test concentration were added to the microtiter plate walls at time zero. All test compound concentrations were examined in duplicate. Incubation of the cells with the test compounds lasted for 72 h at 37° C., in a 5% CO2 atmosphere at 100% humidity. At the end of the incubation period, the cells were assayed using MTT. Aliquots (10 L) of the MTT stock solution (5 mg/ml) were pipetted into each well and incubated for another 1-4 h. After this incubation period the formazan produced was dissolved by addition of 100 µL/well of 10% aq SDS (pH 5.5), followed by a further incubation at 37° C. overnight. The optical density was measured at 540 nm. The IC50 value, the drug concentration inhibiting the cell growth by 50%, was calculated from appropriate dose-response curves.
# (§2) In vitro cytotoxic/cytostatic activity final nucleosides 1-5 was initially evaluated against […] cell lines derived from human solid tumors including lung (A549 cells) and colon (HCT116 and HCT116p53−/−) carcinomas, as well as leukemia cell lines (CCRF-CEM, CEM-DNR, K562 and K562-TAX) and, for comparison, non-malignant BJ and MRC-5 fibroblasts. Concentrations inhibiting the cell growth by 50% (IC50) were determined using a quantitative metabolic staining with 3-(4,5-dimethylthiazol-2-yl)-2,5-diphenyltetrazolium bromide (MTT) (ref.: Denizot, F.; Lang, R. Rapid colorimetric assay for cell growth and survival: Modifications to the tetrazolium dye procedure giving improved sensitivity and reliability. J. Immunol. Meth. 1986, 89, 271-277) following a 3-day treatment.
# [2] = test system: HCV subtype 2A replicon in Huh-7 cells; assay: HCV sub-genomic reporter replicon assay, subtype 2A; conditions: Hepatitis C virus
# Procedure: (§3) Compounds were also tested in Huh-7 cells harboring sub-genomic reporter replicons derived from HCV subtypes 1B and 2A (ref.: Stuyver, L. J.; Whitaker, T.; McBrayer, T. R.; Hernandez-Santiago, B. I.; Lostia, S.; Tharnish, P. M.; Ramesh, M.; Chu, C. K.; Jordan, R.; Shi, J. X.; Rachakonda, S.; Watanabe, K. A.; Otto, M. J.; Schinazi, R. F. Antimicrob. Agents Chemother. 2003, 47, 244-254).
# [3] = test system: Huh-7 cells harboring replicon 2A; assay: Cytotoxicity in replicon 2A cells; conditions: HCV subtype 2A replicon
# Procedure: as §3
# [4] = test system: CCRF-CEM; assay: Cytostatic/cytotoxic MTT assay, CCRF-CEM; conditions: Homo sapiens, read-out: MTT, IC50 CCRF-CEM
# Excerpt: as §1, §2
# [5] = test system: CEM-DNR-bulk; assay: Cytostatic/cytotoxic MTT assay, CEM-DNR-bulk; conditions: Homo sapiens, 72 h, read-out: MTT, IC50 CEM-DNR-bulk
# Excerpt: as §1, §2
# (§4) Multidrug resistance is a major therapeutic problem in cancer chemotherapy. […]
# [6] = test system: K562; assay: Cytostatic/cytotoxic MTT assay, K562; conditions: Homo sapiens, read-out: MTT, IC50 K562
# Excerpt: as §1, §2
# [7] = test system: HCT116p53-/-; assay: Cytostatic/cytotoxic MTT assay, HCT116p53-/-; conditions: Homo sapiens, read-out: MTT, IC50 HCT116 p53-/-
# Excerpt: as §1, §2, §4
# [8] = test system: HCV subtype 1B replicon in Huh-7 cells; assay: HCV sub-genomic reporter replicon assay, subtype 1B; conditions: Hepatitis C virus
# Procedure: as §3
# [9] = test system: Huh-7 cells harboring replicon 1B; assay: Cytotoxicity in replicon 1B cells; conditions: HCV subtype 1B replicon
# Procedure: as §3
# [10] = test system: K562-TAX; assay: Cytostatic/cytotoxic MTT assay, K562-TAX; conditions: Homo sapiens, 72 h, read-out: MTT, IC50 K562-TAX
# Excerpt: as §1, §2, §4
# [11] = test system: A549; assay: Cytostatic/cytotoxic MTT assay, A549; conditions: Homo sapiens, read-out: MTT, IC50 A549
# Excerpt: as §1, §2
# [12] = MRC5, non-malignant fibroblasts, 72 h
# [13] = Huh-7 cells, HCV subtype 2A replicon, read-out: Replicon 2A EC50
# [14] = Huh-7 cells, HCV subtype 1B replicon, read-out: Replicon 1B EC50
SMILES,"IC50 [1, 12] [nM]","EC50 [2, 13] [nM]",CC50 [3] [nM],IC50 ([4]; 72 h incubation) [nM],IC50 ([5]; daunorubicin resistant subline) [nM],"IC50 ([6]; K562, 72 h incubation) [nM]","IC50 ([7]; HCT-116, 72 h incubation) [nM]","EC50 [8, 14] [nM]",CC50 [9] [nM],IC50 ([10]; paclitaxel resistant subline) [nM],"IC50 ([11]; A549, 72 h incubation) [nM]","IC50 ([1]; MRC5, 72 h) [nM]","EC50 ([2]; Huh-7, read-out: Replicon 2A EC50) [nM]",IC50 ([4]; 72 h) [nM],IC50 [5] [nM],"IC50 ([6]; K562, 72 h) [nM]","IC50 ([7]; HCT-116, 72 h) [nM]","EC50 ([8]; Huh-7, read-out: Replicon 1B EC50) [nM]",IC50 [10] [nM],"IC50 ([11]; A549, 72 h) [nM]"
"CN(C)c1ncnc2c1ccn2[C@@H]1O[C@H](CO)[C@@H](O)[C@H]1O [RC4, reference compound]",58200,970,> 44000,630,2600,5280,5090,270,> 44000,890,> 20000,,,,,,,,,
"C#Cc1cn([C@@H]2O[C@H](CO)[C@@H](O)[C@H]2O)c2ncnc(OC)c12 [Compound 1g, 5-Ethynyl-4-methoxy-7-(β-D-ribofuranosyl)-7H-pyrrolo[2,3-d]pyrimidine]",> 100000,> 44000,> 44000,> 20000,3490,300,5140,180,> 44000,380,8160,,,,,,,,,
"CN(C)c1ncnc2c1c(-c1ccco1)cn2[C@@H]1O[C@H](CO)[C@@H](O)[C@H]1O [Compound 4a, 4-Dimethylamino-5-(furan-2-yl)-7-(β-D-ribofuranosyl)-7H-pyrrolo[2,3-d]pyrimidine]",> 100000,1350,> 44000,2910,3140,150,320,1490,> 44000,1280,4600,,,,,,,,,
"CN(C)c1ncnc2c1c(-c1ccccc1)cn2[C@@H]1O[C@H](CO)[C@@H](O)[C@H]1O [Compound 4e, 4-Dimethylamino-5-phenyl-7-(β-D-ribofuranosyl)-7H-pyrrolo[2,3-d]pyrimidine]",> 100000,> 44000,> 44000,> 20000,> 20000,> 20000,> 20000,26900,> 44000,> 20000,> 100000,,,,,,,,,
"Cc1ncnc2c1ccn2[C@@H]1O[C@H](CO)[C@@H](O)[C@H]1O [RC5, 4-Methyl-7-(β-D-ribofuranosyl)-7H-pyrrolo[2,3-d]pyrimidine, reference compound]",,,120,,,,,,230,,,90,20,10,50,10,60,20,50,30
"Cc1ncnc2c1c(-c1ccco1)cn2[C@@H]1O[C@H](CO)[C@@H](O)[C@H]1O [Compound 5a, 5-(Furan-2-yl)-4-methyl-7-(β-D-ribofuranosyl)-7H-pyrrolo[2,3-d]pyrimidine]",610,150,43600,40,70,40,40,70,6620,110,110,,,,,,,,,

# From patent US9586986B2, “Substituted 7-deazapurine ribonucleosides for therapeutic uses” (Institute of Organic Chemistry and Biochemistry ASCR, v.v.i., priority 2014, dated 2017)
